Among the test systems are DMS-273; HOP-18; XF498; SNB-78; LXFL 529; DLD-1; M19-MEL; RXF 631; DMS-114.
Holding throughout (experiment): growth of human tumour cells (NCI), 48 h

Each structure is given as a SMILES string.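 Briefly, cells in 96-well plates were exposed to five compound concentrations for 48 h, and endpoints were estimated by linear interpolation. GI50 is the concentration that inhibits growth by half.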 Activity calls are given as the source filed them. No stated cut-off is given here; in the data, active = GI50 up to about 1.1 µM and inactive = higher.

The values that follow come from ChEMBL document CHEMBL1201862, “PubChem BioAssay data set” (2004).

In the case of `CCCC[C@H](CCc1ccccc1)N(C(=O)OC)N1CCC[C@H]1COC`, the GI50 in the experiment with DMS-273 is 18.7 µM (inactive); with HOP-18, 27.2 µM (inactive); in the experiment with XF498, 14 µM (inactive); in the experiment on SNB-78, 21.3 µM (inactive); in the experiment on LXFL 529, 17.2 µM (inactive); with DLD-1, 18.4 µM (inactive). Further, the GI50 in the experiment on M19-MEL is 20.1 µM (inactive); in the experiment on RXF 631, 16.9 µM (inactive); with DMS-114 it was 15.8 µM (inactive).

In the case of `Cc1c(C(=O)/C=C/c2ccc([N+](=O)[O-])cc2)[n+]([O-])c2ccccc2[n+]1[O-]`, the GI50 is 57.3 µM (inactive) in the experiment with DMS-273; > 100 µM (inactive) in the experiment on HOP-18; > 100 µM (inactive) with XF498; 65.5 µM (inactive) in the experiment on SNB-78; 29.2 µM (inactive) in the experiment on LXFL 529; 42.7 µM (inactive) in the experiment with DLD-1. Moreover, the figures for the GI50 in the experiment on M19-MEL and in the experiment on DMS-114 were > 100 µM (inactive) and 30.6 µM (inactive), respectively.

For the compound `O=C(CN1CCOCC1)Nc1nc(-c2ccc(Cl)cc2)cs1`, the GI50 in the experiment with DMS-273 was 17.5 µM (inactive); with HOP-18, 38.5 µM (inactive); in the experiment with XF498 it was 13.2 µM (inactive); in the experiment with SNB-78 it was 25.2 µM (inactive); in the experiment on DLD-1, 33.1 µM (inactive); in the experiment on M19-MEL, 32.6 µM (inactive). Moreover, the GI50 with DMS-114 is 21.3 µM (inactive).

For `O=C(O)C12C3C4C1C1C2C3C1(Br)C41OCCO1` (stereo unspecified), the GI50 with DMS-273, in the experiment on HOP-18, in the experiment on XF498, in the experiment on SNB-78, with LXFL 529 and in the experiment on DLD-1 was > 100 µM (inactive) in each case. In addition, the GI50 in the experiment with M19-MEL and in the experiment on DMS-114 was > 100 µM (inactive) each time.

Turning to `COc1cc2c(c(OC)c1OC)[C@@H]1CCCCC[C@@H]1CCC2=O`, the GI50 with DMS-273 is > 49.4 µM (inactive); in the experiment with HOP-18, > 100 µM (inactive); in the experiment with XF498, > 94 µM (inactive); with LXFL 529, 58.7 µM (inactive); in the experiment on DLD-1 it was 38.4 µM (inactive); in the experiment on M19-MEL it was > 100 µM (inactive). Besides, the GI50 in the experiment on RXF 631 is > 100 µM (inactive); with DMS-114, 29.4 µM (inactive).

As to `CCc1nc(N)nc(C(=O)NCCNC(=O)c2nc(N)nc(CC)c2C)c1C`, the GI50 in the experiment on DMS-273, in the experiment on HOP-18, with XF498, with SNB-78, in the experiment with LXFL 529 and in the experiment on DLD-1 was > 100 µM (inactive) in each case. Further, the GI50 with M19-MEL, in the experiment on RXF 631 and in the experiment with DMS-114 was > 100 µM (inactive) throughout.

In the case of `CC(C)C(Nc1c2ccccc2[n+](C)c2ccccc12)C(=O)O` (stereo unspecified), the GI50 in the experiment on DMS-273, with HOP-18, with XF498, in the experiment on SNB-78, in the experiment with LXFL 529 and in the experiment with DLD-1 was > 100 µM (inactive) each time. Moreover, the GI50 with M19-MEL and with DMS-114 was > 100 µM (inactive) in each case.

In the case of `N#C/C(=C\c1c(Cl)cccc1Cl)c1ccccc1`, the GI50 with DMS-273 is 3.35 µM (inactive); in the experiment on HOP-18 it was > 50.1 µM (inactive); with XF498, 8.13 µM (inactive); in the experiment with SNB-78, 11.1 µM (inactive); in the experiment on LXFL 529, 33.7 µM (inactive); with DLD-1, 5.18 µM (inactive). For the same compound, the results for the GI50 in the experiment on M19-MEL, in the experiment with RXF 631 and in the experiment with DMS-114 were 8.57 µM (inactive), 7.23 µM (inactive) and 12.4 µM (inactive), respectively.

Take `COc1ccc2nc(NC(=O)C(=O)C(C#N)c3ccc([N+](=O)[O-])cc3)sc2c1` (stereo unspecified): the GI50 in the experiment with DMS-273 is > 100 µM (inactive); in the experiment on HOP-18 it was 99.8 µM (inactive); in the experiment with SNB-78 it was > 100 µM (inactive); in the experiment on LXFL 529, 23.6 µM (inactive); in the experiment with DLD-1, > 100 µM (inactive); in the experiment on M19-MEL, > 100 µM (inactive). Moreover, the GI50 in the experiment with DMS-114 was 43.3 µM (inactive).

In the case of `NC1=NCN(C2OC(CO)C(O)C2O)C(=O)N1` (stereo unspecified), the GI50 with DMS-273 was 7.64 µM (inactive); with HOP-18, 22.4 µM (inactive); with XF498 it was 17.5 µM (inactive); in the experiment on SNB-78 it was 36.9 µM (inactive); in the experiment on DLD-1, 6.52 µM (inactive); with M19-MEL it was 70.6 µM (inactive). Further, the GI50 with DMS-114 is 19 µM (inactive).

For the compound `CC(=O)c1ccccc1NC(=O)C(=O)C(C(=O)c1ccc2ccccc2c1)C1OC(=O)c2ccccc21` (stereo unspecified), the GI50 in the experiment on DMS-273 was 6.32 µM (inactive); in the experiment with HOP-18 it was 14.5 µM (inactive); with XF498 it was 3.13 µM (inactive); with SNB-78, 9.4 µM (inactive); in the experiment with LXFL 529, 9.79 µM (inactive); with DLD-1, 12.2 µM (inactive). For the same compound, the GI50 in the experiment on M19-MEL is 8.85 µM (inactive); with DMS-114, 7.98 µM (inactive).

`NCCCCNc1ccc2c(=O)[nH][nH]c(=O)c2c1`: the GI50 with DMS-273, with HOP-18, in the experiment with SNB-78, in the experiment with LXFL 529, in the experiment with DLD-1 and with M19-MEL was > 100 µM (inactive) in each case. The GI50 with DMS-114 is > 100 µM (inactive).

With `CCN(CC)c1oc(N(CC)CC)c(C(=O)Nc2ccccn2)c(=O)c1C(C)=O`, the GI50 in the experiment on DMS-273, in the experiment on XF498, in the experiment on SNB-78, with LXFL 529, in the experiment with DLD-1 and with M19-MEL was > 100 µM (inactive) each time. The GI50 in the experiment with DMS-114 was > 100 µM (inactive).

For the compound `COC(=O)[C@@]1(C)/C(=N/NS(=O)(=O)c2ccc(C)cc2)CCC[C@@H]1C`, the GI50 was > 100 µM (inactive) in the experiment on HOP-18; > 100 µM (inactive) in the experiment with SNB-78; > 100 µM (inactive) with LXFL 529; 44.7 µM (inactive) with DLD-1; > 100 µM (inactive) in the experiment on M19-MEL; 24.3 µM (inactive) in the experiment with DMS-114.

In the case of `O=C1C=CC(=O)C2=C1[C@@H](O)C1CC=CC3C(=O)O[C@@H]2C31` (stereo partly specified), the GI50 with DMS-273 was 21.9 µM (inactive); with HOP-18, 29.4 µM (inactive); in the experiment on XF498, 22.1 µM (inactive); in the experiment on SNB-78, > 42.7 µM (inactive); in the experiment on LXFL 529 it was 15.6 µM (inactive); in the experiment on DLD-1, 18.2 µM (inactive). In addition, the GI50 in the experiment with M19-MEL was 23.2 µM (inactive); with DMS-114 it was 22.7 µM (inactive).

Take `CCOC(C[C@H](O[Si](C)(C)C(C)(C)C)[C@H]1COC(=S)S1)OCC`: the GI50 with DMS-273 was 30.1 µM (inactive); in the experiment with XF498, 27.2 µM (inactive); in the experiment on LXFL 529, 33.1 µM (inactive); in the experiment with M19-MEL, 35.9 µM (inactive); in the experiment on DMS-114 it was 36.7 µM (inactive).

With `COc1cc(OC)c(/C=C2\N=C(C)N(Nc3nnc(NN4C(=O)/C(=C/c5c(OC)cc(OC)cc5OC)N=C4C)c4ccccc34)C2=O)c(OC)c1`, the GI50 in the experiment with DMS-273, in the experiment on HOP-18, in the experiment on SNB-78, in the experiment on LXFL 529, in the experiment with DLD-1 and in the experiment on M19-MEL was > 100 µM (inactive) throughout. In addition, the GI50 in the experiment on DMS-114 is > 100 µM (inactive).

In the case of `CC(=O)OC1CCC2OOC1O2` (stereo unspecified), the GI50 in the experiment with DMS-273, in the experiment with SNB-78, in the experiment on M19-MEL and with DMS-114 was > 100 µM (inactive) throughout.

On to `Nc1cc2[nH]cnc2c(=O)[nH]1` [DEZAGUANINE], for which the GI50 is 8.26 µM (inactive) in the experiment with DMS-273; > 121 µM (inactive) in the experiment with HOP-18; 5.42 µM (inactive) in the experiment on XF498; > 300 µM (inactive) in the experiment on SNB-78; 13.9 µM (inactive) with DLD-1; 181 µM (inactive) with M19-MEL. The GI50 in the experiment on DMS-114 was 97.7 µM (inactive).

For `CCCCC(N)CSSCC(N)CCCC` (stereo unspecified), the GI50 is 23.4 µM (inactive) with DMS-273; > 100 µM (inactive) in the experiment on HOP-18; 20.3 µM (inactive) in the experiment with XF498; 32.7 µM (inactive) in the experiment on SNB-78; 16.8 µM (inactive) in the experiment with LXFL 529; 21.6 µM (inactive) with DLD-1. Moreover, the figures for the GI50 in the experiment on M19-MEL and in the experiment with DMS-114 were 26.2 µM (inactive) and 17.7 µM (inactive), respectively.

For the compound `O=S(=O)(c1ccccc1)n1cc(C[P+](c2ccccc2)(c2ccccc2)c2ccccc2)c2ccccc21`, the GI50 is 3.21 µM (inactive) in the experiment with DMS-273; 3.6 µM (inactive) in the experiment on XF498; 5.71 µM (inactive) in the experiment on SNB-78; 1.48 µM (inactive) in the experiment on LXFL 529; 2.46 µM (inactive) with DLD-1; 4.29 µM (inactive) in the experiment with M19-MEL. Moreover, the GI50 in the experiment with DMS-114 is 3.37 µM (inactive).

`Nc1ccc(C(=O)NN2C(=O)C(Cl)C2c2cc(Br)ccc2O)cc1` (stereo unspecified): the GI50 is 80.4 µM (inactive) with DMS-273; > 100 µM (inactive) in the experiment on XF498; > 100 µM (inactive) in the experiment with SNB-78; > 100 µM (inactive) with LXFL 529; > 100 µM (inactive) in the experiment on DLD-1; > 100 µM (inactive) in the experiment on M19-MEL. The GI50 in the experiment on DMS-114 was 44.5 µM (inactive).

As for `Cc1c2cc[n+](C)cc2c(C)c2c1[nH]c1ccc(Oc3ccccc3)cc12`, the GI50 in the experiment with DMS-273 is 0.387 µM (active); with LXFL 529 it was 0.296 µM (active); in the experiment with DLD-1, 1.3 µM (inactive).

Consider `CCCc1nc(N)nc(C(=O)Nc2cccc(C(F)(F)F)c2)c1CC`, for which the GI50 with DMS-273, with HOP-18, in the experiment on XF498, with SNB-78, in the experiment on DLD-1 and with M19-MEL was > 100 µM (inactive) throughout. Also, the GI50 with DMS-114 was > 100 µM (inactive).

For `CSCCOC(=O)C(=[N+]=[N-])c1ccc([N+](=O)[O-])cc1`, the GI50 with DMS-273, with XF498, with LXFL 529, in the experiment with DLD-1 and in the experiment on DMS-114 was > 100 µM (inactive) each time.
